Measurements as given in patent publication US20070232650A1, “Malate salts, and polymorphs of (3S,5S)-7-[3-amino-5-methyl-piperidinyl]-1-cyclopropyl-1,4-dihydro-8-methoxy-4-oxo-3-quinolinecarboxylic acid” (The Procter & Gamble Company, priority 2006, published 2007).

Assays:
[1] = Solubility of isolated salt forms (salt screen)
[2] = Chemical stability of salt forms; type: physicochemical; details: upon scale up
Description: Malate salts of 7-[3S-amino-5S-methyl-piperidinyl]-1-cyclopropyl-1,4-dihydro-8-methoxy-4-oxo-3-quinolinecarboxylic acid may be formed and isolated under practical manufacturing conditions. Use of the chiral malate for salt formation (as the racemic mix or the chirally pure forms) may in some instances assist with chiral purification of 7-[3S-amino-5S-methyl-piperidinyl]-1-cyclopropyl-1,4-dihydro-8-methoxy-4-oxo-3-quinolinecarboxylic acid. […] Using the same test methods, the anhydrate forms are shown to pick up moisture and spontaneously convert to the corresponding hydrated form upon exposure to humidity.

Compound | Solubility ([1]; salt screen, Table 1) | Ease of Isolation (degradation) [2] | Solubility ([1]; water)
COc1c(N2C[C@@H](C)C[C@H](N)C2)ccc2c(=O)c(C(=O)O)cn(C3CC3)c12 (racemic) [DL-malate, hemi-hydrate, (3S,5S)-7-[3-amino-5-methyl-piperidinyl]-1-cyclopropyl-1,4-dihydro-8-methoxy-4-oxo-3-quinolinecarboxylic acid] | 12 (hemi- mg/ml |  | 
O=C(O)[C@H]1OC(O)[C@H](O)[C@@H](O)[C@@H]1O (stereo partly drawn) [D-Glucuronate] | 8 mg/mL | Degradation | 
COc1c(N2C[C@@H](C)C[C@H](N)C2)ccc2c(=O)c(C(=O)O)cn(C3CC3)c12 [Freebase, (3S,5S)-7-[3-amino-5-methyl-piperidinyl]-1-cyclopropyl-1,4-dihydro-8-methoxy-4-oxo-3-quinolinecarboxylic acid] |  |  | < 1 mg/mL
Fumarate | 9 mg/mL |  | 
